Experimental data from the supplement of paper PMC10307832.

Tests used:
Assay in all cases: relative viability (nuclei count vs DMSO), 5 days (fraction); higher = more cells survive
Dinaciclib + Pictilisib = compound: CCc1cnn2c(NCc3ccc[n+]([O-])c3)cc(N3CCCC[C@H]3CCO)nc12 [Dinaciclib] + CS(=O)(=O)N1CCN(Cc2cc3nc(-c4cccc5[nH]ncc45)nc(N4CCOCC4)c3s2)CC1 [Pictilisib] (partner 1 µM)
Summary of the method: (§1)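 Lung cancer cell lines were pin-tool dosed in 1536-well plates on the day after seeding, with either a lone drug or a fixed anchor-drug dose plus five library-drug doses (not always all listed) in √10 steps. Nuclei were counted on 4× images after 5 days. Relative viability is the ratio of treated-well to vehicle-well nuclei counts, with each value a median of duplicate plates.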

Dinaciclib + Tozasertib = compound: CCc1cnn2c(NCc3ccc[n+]([O-])c3)cc(N3CCCC[C@H]3CCO)nc12 [Dinaciclib] + Cc1cc(Nc2cc(N3CCN(C)CC3)nc(Sc3ccc(NC(=O)C4CC4)cc3)n2)n[nH]1 [Tozasertib] (partner 0.1 µM)
Summary of the method: as §1

Dinaciclib + Alpelisib = compound: CCc1cnn2c(NCc3ccc[n+]([O-])c3)cc(N3CCCC[C@H]3CCO)nc12 [Dinaciclib] + Cc1nc(NC(=O)N2CCC[C@H]2C(N)=O)sc1-c1ccnc(C(C)(C)C(F)(F)F)c1 [Alpelisib] (partner 2 µM)
Summary of the method: as §1

Dinaciclib + Phenformin = compound: CCc1cnn2c(NCc3ccc[n+]([O-])c3)cc(N3CCCC[C@H]3CCO)nc12 [Dinaciclib] + N=C(N)NC(=N)NCCc1ccccc1 [Phenformin] (partner 250 µM)
Summary of the method: as §1

Dinaciclib + Vorinostat = compound: CCc1cnn2c(NCc3ccc[n+]([O-])c3)cc(N3CCCC[C@H]3CCO)nc12 [Dinaciclib] + O=C(CCCCCCC(=O)Nc1ccccc1)NO [Vorinostat] (partner 1 µM)
Summary of the method: as §1

Cell Line	relative viability (Dinaciclib + Pictilisib; first compound 0.009487 µM)	relative viability (Dinaciclib + Pictilisib; first compound 0.03 µM)	relative viability (Dinaciclib + Pictilisib; first compound 0.09487 µM)	relative viability (Dinaciclib + Pictilisib; first compound 0.3 µM)	relative viability (Dinaciclib + Tozasertib; first compound 0.009487 µM)	relative viability (Dinaciclib + Tozasertib; first compound 0.03 µM)	relative viability (Dinaciclib + Tozasertib; first compound 0.09487 µM)	relative viability (Dinaciclib + Tozasertib; first compound 0.3 µM)	relative viability (Dinaciclib + Alpelisib; first compound 0.009487 µM)	relative viability (Dinaciclib + Alpelisib; first compound 0.03 µM)	relative viability (Dinaciclib + Alpelisib; first compound 0.09487 µM)	relative viability (Dinaciclib + Alpelisib; first compound 0.3 µM)	relative viability (Dinaciclib + Phenformin; first compound 0.009487 µM)	relative viability (Dinaciclib + Phenformin; first compound 0.03 µM)	relative viability (Dinaciclib + Phenformin; first compound 0.09487 µM)	relative viability (Dinaciclib + Phenformin; first compound 0.3 µM)	relative viability (Dinaciclib + Vorinostat; first compound 0.009487 µM)	relative viability (Dinaciclib + Vorinostat; first compound 0.03 µM)	relative viability (Dinaciclib + Vorinostat; first compound 0.09487 µM)	relative viability (Dinaciclib + Vorinostat; first compound 0.3 µM)
201T	0.714	0.372	0.308	0.265	0.915	0.293	0.274	0.263	1.11	0.829	0.288	0.284	0.418	0.415	0.257	0.238	1.24	0.74	0.214	0.213
A-427	0.564	0.0973	0.0666	0.065	0.236	0.0917	0.0666	0.0775	1.11	0.138	0.0763	0.067	0.328	0.094	0.0857	0.0889	0.699	0.216	0.111	0.117
ABC-1	0.658	0.157	0.163	0.136	0.199	0.174	0.11	0.0868	0.726	0.342	0.194	0.172	0.209	0.157	0.13	0.132	0.845	0.419	0.297	0.246
BEN	0.621	0.388	0.173	0.191	0.568	0.638	0.268	0.348	1.24	0.517	0.207	0.236	0.235	0.217	0.174	0.209	0.67	0.63	0.345	0.308
CAL-12T	0.201	0.105	0.122	0.116	0.166	0.0862	0.0939	0.0838	0.443	0.128	0.0835	0.115	0.188	0.103	0.107	0.097	0.511	0.0992	0.1	0.131
COR-L23	0.414	0.0756	0.0621	0.0547	0.214	0.0848	0.0671	0.0704	0.637	0.0835	0.0694	0.0603	0.296	0.0764	0.0763	0.069	0.41	0.0812	0.087	0.0797
COR-L 105	0.306	0.23	0.224	0.25	0.369	0.304	0.25	0.208	0.575	0.35	0.234	0.187	0.384	0.217	0.208	0.201	0.679	0.444	0.302	0.302
ChaGo-K-1	0.321	0.213	0.175	0.161	0.22	0.168	0.132	0.111	–	–	–	–	0.414	0.17	0.125	0.137	0.803	0.197	0.139	0.112
EKVX	0.407	0.227	0.12	0.113	0.398	0.253	0.074	0.0722	0.862	0.449	0.11	0.122	0.239	0.218	0.162	0.091	0.612	0.472	0.167	0.226
EMC-BAC-2	0.621	0.303	0.136	0.15	0.265	0.209	0.142	0.121	0.765	0.227	0.113	0.112	0.472	0.199	0.13	0.166	0.36	0.166	0.152	0.143
EPLC-272H	0.218	0.0536	0.0465	0.046	0.229	0.0357	0.0443	0.0467	0.828	0.542	0.0754	0.0887	0.344	0.122	0.0306	0.0277	0.242	0.0369	0.0282	0.0401
H3255	0.415	0.261	0.164	0.182	0.678	0.578	0.256	0.218	0.716	0.352	0.15	0.141	0.333	0.305	0.315	0.28	0.705	0.51	0.211	0.205
HARA	0.529	0.0709	0.0524	0.031	0.105	0.0553	0.0492	0.0424	0.72	0.0726	0.0663	0.0442	0.518	0.129	0.0472	0.0313	0.527	0.331	0.0816	0.0937
HCC-15	0.637	0.117	0.0949	0.11	0.407	0.0586	0.0549	0.0646	0.863	0.169	0.0978	0.0964	0.352	0.115	0.107	0.103	0.715	0.355	0.121	0.124
HCC-44	0.711	0.248	0.122	0.129	0.594	0.204	0.206	0.184	0.677	0.095	0.133	0.118	0.138	0.105	0.0633	0.0778	1.24	1.04	0.368	0.319
HCC-78	0.197	0.226	0.105	0.11	0.345	0.282	0.144	0.138	0.298	0.202	0.115	0.118	0.744	0.332	0.17	0.165	0.457	0.372	0.229	0.186
HCC-366	0.196	0.0396	0.0372	0.044	0.136	0.0294	0.0259	0.0198	0.366	0.0443	0.0165	0.0153	0.593	0.137	0.03	0.0292	0.193	0.0415	0.0286	0.0247

Cell Line	relative viability (Dinaciclib + Pictilisib; first compound 0.009487 µM)	relative viability (Dinaciclib + Pictilisib; first compound 0.03 µM)	relative viability (Dinaciclib + Pictilisib; first compound 0.09487 µM)	relative viability (Dinaciclib + Pictilisib; first compound 0.3 µM)	relative viability (Dinaciclib + Tozasertib; first compound 0.009487 µM)	relative viability (Dinaciclib + Tozasertib; first compound 0.03 µM)	relative viability (Dinaciclib + Tozasertib; first compound 0.09487 µM)	relative viability (Dinaciclib + Tozasertib; first compound 0.3 µM)	relative viability (Dinaciclib + Alpelisib; first compound 0.009487 µM)	relative viability (Dinaciclib + Alpelisib; first compound 0.03 µM)	relative viability (Dinaciclib + Alpelisib; first compound 0.09487 µM)	relative viability (Dinaciclib + Alpelisib; first compound 0.3 µM)	relative viability (Dinaciclib + Phenformin; first compound 0.009487 µM)	relative viability (Dinaciclib + Phenformin; first compound 0.03 µM)	relative viability (Dinaciclib + Phenformin; first compound 0.09487 µM)	relative viability (Dinaciclib + Phenformin; first compound 0.3 µM)	relative viability (Dinaciclib + Vorinostat; first compound 0.009487 µM)	relative viability (Dinaciclib + Vorinostat; first compound 0.03 µM)	relative viability (Dinaciclib + Vorinostat; first compound 0.09487 µM)	relative viability (Dinaciclib + Vorinostat; first compound 0.3 µM)
HCC-827	0.998	0.446	0.242	0.223	0.417	0.251	0.101	0.117	0.879	0.601	0.126	0.123	0.385	0.339	0.121	0.123	1	0.747	0.123	0.159
HOP-62	0.583	0.092	0.0651	0.0405	0.293	0.13	0.0833	0.075	0.828	0.27	0.0713	0.0692	0.54	0.299	0.0816	0.0886	0.543	0.0919	0.0742	0.0609
IA-LM	0.327	0.0323	0.0279	0.0329	–	–	–	–	0.669	0.0488	0.0282	0.0261	–	–	–	–	0.973	0.547	0.0376	0.0379
LC-2-ad	0.305	0.071	0.0698	0.0506	0.363	0.242	0.19	0.219	0.811	0.0609	0.0619	0.0681	0.334	0.219	0.181	0.18	0.685	0.17	0.108	0.108
LCLC-97TM1	0.209	0.116	0.109	0.0963	0.172	0.115	0.128	0.112	0.197	0.129	0.121	0.107	0.391	0.257	0.153	0.129	0.56	0.0645	0.0617	0.0592
LCLC-103H	0.572	0.463	0.147	0.143	0.487	0.315	0.0924	0.0865	0.934	0.844	0.248	0.113	0.292	0.327	0.11	0.0875	0.777	0.505	0.178	0.197
LK-2	0.358	0.23	0.21	0.214	0.2	0.154	0.151	0.168	0.849	0.274	0.232	0.199	0.274	0.142	0.156	0.125	0.251	0.152	0.148	0.161
LOU-NH91	0.507	0.288	0.254	0.229	0.656	0.305	0.178	0.174	0.73	0.462	0.253	0.235	0.645	0.249	0.208	0.151	0.825	0.286	0.241	0.275
LU99A	0.283	0.134	0.109	0.122	0.247	0.142	0.143	0.148	0.37	0.133	0.116	0.0993	0.709	0.14	0.0878	0.132	0.332	0.119	0.0932	0.109
LXF-289	0.843	0.0778	0.0596	0.0483	0.183	0.149	0.0561	0.0572	1.01	0.264	0.0715	0.0695	0.538	0.229	0.0748	0.0626	0.813	0.257	0.0809	0.0855
NCI-H23	0.41	0.148	0.126	0.145	0.246	0.131	0.116	0.13	0.578	0.15	0.119	0.104	0.807	0.31	0.114	0.116	0.512	0.143	0.104	0.122
NCI-H1563	0.655	0.326	0.296	0.284	–	–	–	–	1.09	0.459	0.388	0.302	0.745	0.365	0.259	0.236	–	–	–	–
NCI-H1650	0.536	0.146	0.101	0.112	0.363	0.176	0.119	0.147	–	–	–	–	0.262	0.139	0.151	0.126	0.798	0.175	0.119	0.125
NCI-H1703	0.26	0.154	0.127	0.133	–	–	–	–	0.419	0.119	0.0849	0.115	–	–	–	–	–	–	–	–
NCI-H1792	0.234	0.121	0.0539	0.0574	–	–	–	–	0.732	0.289	0.118	0.0656	0.237	0.184	0.0541	0.075	–	–	–	–
NCI-H2342	–	–	–	–	0.491	0.468	0.231	0.203	–	–	–	–	0.737	0.543	0.288	0.303	0.75	0.685	0.703	0.323
SW 900	–	–	–	–	0.707	0.149	0.0868	0.0829	–	–	–	–	0.612	0.141	0.0751	0.101	0.557	0.33	0.171	0.143
